Data taken from US9920030B2 (priority 2006, dated 2018).
Like-named read-outs stand apart in the source and are kept apart here.

What was measured:
Assay type in all cases: in vivo
[1] = test system: Plasmopara vilicola (the causal agent of grape downy mildew); test: Test A: grape downy mildew, test suspension sprayed on grape seedlings after inoculation, visual disease rating; details: for pest or weed control at 40 ppm / pest or weed control at 10 µg/mL: Plasmopara, 144 h, read-out: Percent Disease Control, Test A
Excerpt: General protocol for preparing test suspensions for Test A-C: The test compounds were first dissolved in acetone in an amount equal to 3% of the final volume and then suspended at the desired concentration (in ppm) in acetone and purified water (50/50 mix by volume) containing 250 ppm of the surfactant Trem® 014 (polyhydric alcohol esters). The resulting test suspensions were then used in Tests A-C. Spraying a 200 ppm test suspension to the point of run-off on the test plants was equivalent to a rate of 500 g/ha.
Grape seedlings were inoculated with a spore suspension of Plasmopara vilicola (the causal agent of grape downy mildew) and incubated in a saturated atmosphere at 20° C. for 24 h. After a short drying period, the test suspension was sprayed to the point of run-off on the grape seedlings, which were then moved to a growth chamber at 20° C. for 5 days, after which time the grape seedling were placed back into a saturated atmosphere at 20° C. for 24 h. Upon removal, visual disease ratings were made.
Results for Tests A-C are given in Table A. In the table, a rating of 100 indicates 100% disease control and a rating of 0 indicates no disease control (relative to the controls). A dash (-) indicates no test results.

[2] = test system: Phytophthora infestans (the causal agent of tomato late blight); test: whole plant or invertebrate; details: for pest or weed control at 40 ppm / pest or weed control at 10 µg/mL: Phytophthora infestans, 144 h, read-out: Percent Disease Control, Test B
[3] = test system: Phytophthora infestans (the causal agent of tomato late blight); test: whole plant or invertebrate; details: for pest or weed control at 40 ppm / pest or weed control at 10 µg/mL: Phytophthora infestans, 96 h, read-out: Percent Disease Control, Test C
[4] = compounds without asterisk (application rate not given), 100 = 100% disease control, 0 = no control relative to the controls

1-[4-[4-(4,5-dihydro-5-(2-pyridinyl)-3-isoxazolyl)-2-thiazolyl]-1-piperidinyl]-2-[5-methyl-3-(trifluoromethyl)-1H-pyrazol-1-yl]ethanone [Compound 98]
Percent Disease Control, Test A [1, 4]: 99%
Percent Disease Control, Test B [2, 4]: 100%
Percent Disease Control, Test C [3, 4]: 99%

1-[4-[4-(4,5-dihydro-5-phenyl-3-isoxazolyl)-2-thiazolyl]-3,6-dihydro-1(2H)-pyridinyl]-2-[5-methyl-3-(trifluoromethyl)-1H-pyrazol-1 yl]ethanone [Compound 217]
Percent Disease Control, Test A [1, 4]: 0%
Percent Disease Control, Test B [2, 4]: 95%
Percent Disease Control, Test C [3, 4]: 86%

1-[4-[4-[5-(2-chlorophenyl)-4,5-dihydro-3-isoxazolyl]-2-thiazolyl]-1-piperidinyl]-2-[5-methyl-3-(trifluoromethyl)-1H-pyrazol-1-yl]ethanone [Compound 8]
Percent Disease Control, Test A [1, 4]: 96%
Percent Disease Control, Test B [2, 4]: 100%
Percent Disease Control, Test C [3, 4]: 99%

1-[4-[4-[(5R)-4,5-dihydro-5-phenyl-3-isoxazolyl]-2-thiazolyl]-1-piperidinyl]-2-[5-methyl-3-(trifluoromethyl)-1H-pyrazol-1-yl]ethanone [Compound 3]
Percent Disease Control, Test A [1, 4]: 52%
Percent Disease Control, Test B [2, 4]: 47%
Percent Disease Control, Test C [3, 4]: 0%

2-[5-chloro-3-(trifluoromethyl)-1H-pyrazol-1-yl]-1-[4-[4-(4,5-dihydro-5-phenyl-3-isoxazolyl)-2-thiazolyl]-1-piperidinyl]ethanone [Compound 107]
Percent Disease Control, Test A [1, 4]: 97%
Percent Disease Control, Test B [2, 4]: 100%
Percent Disease Control, Test C [3, 4]: 99%

Cc1cc(C(F)(F)F)nn1CC(=O)N1CCC(c2nc(C3=NOC4(CCCCC4c4ccccc4)C3)cs2)CC1 (mixture of isomers) [Compound 170]
Percent Disease Control, Test A ([1]; * tested at 40 ppm): 99%
Percent Disease Control, Test B ([2]; * tested at 40 ppm): 100%
Percent Disease Control, Test C ([3]; * tested at 40 ppm): 93%

Cc1cc(C(F)(F)F)nn1CC(=O)N1CCC(c2nc(C3=NOC4(CCCC(c5ccccc5)C4)C3)cs2)CC1 (mixture of isomers) [Compound 171]
Percent Disease Control, Test A ([1]; * tested at 40 ppm): 99%
Percent Disease Control, Test B ([2]; * tested at 40 ppm): 100%
Percent Disease Control, Test C ([3]; * tested at 40 ppm): 98%

Cc1cc(C(F)(F)F)nn1CC(=O)N1CCC(c2nc(C3=NOC(c4cccc(Cl)c4)C3)cs2)CC1 (racemic) [Compound 17]
Percent Disease Control, Test A ([1]; * tested at 40 ppm): 100%
Percent Disease Control, Test B ([2]; * tested at 40 ppm): 99%
Percent Disease Control, Test C ([3]; * tested at 40 ppm): 99%

Cc1cc(C(F)(F)F)nn1CC(=O)N1CCC(c2nc(C3=NOC(Cc4ccccc4)C3)cs2)CC1 (racemic) [Compound 24]
Percent Disease Control, Test A [1, 4]: 99%
Percent Disease Control, Test B [2, 4]: 100%
Percent Disease Control, Test C [3, 4]: 93%

Cc1cc(C(F)(F)F)nn1CC(=O)N1CCC(c2nc(C3=NOC(CCC(C)C)C3)cs2)CC1 (racemic) [Compound 27]
Percent Disease Control, Test A [1, 4]: 100%
Percent Disease Control, Test B [2, 4]: 100%
Percent Disease Control, Test C [3, 4]: 98%

Cc1cc(C(F)(F)F)nn1CC(=O)N1CCC(c2nc(C3=NOC(CC(C)(C)C)C3)cs2)CC1 (racemic) [Compound 28]
Percent Disease Control, Test A [1, 4]: 99%
Percent Disease Control, Test B [2, 4]: 100%
Percent Disease Control, Test C [3, 4]: 94%

Cc1cc(C(F)(F)F)nn1CC(=O)N1CCC(c2nc(C3=NO[C@@H](N4C(=O)c5ccccc5C4=O)C3)cs2)CC1 (racemic) [Compound 129]
Percent Disease Control, Test A ([1]; * tested at 40 ppm): 99%
Percent Disease Control, Test B ([2]; * tested at 40 ppm): 100%
Percent Disease Control, Test C ([3]; * tested at 40 ppm): 99%

Cc1cc(C(F)(F)F)nn1CC(=O)N1CCC(c2nc(C3=NO[C@@H](c4c(Cl)cccc4Cl)C3)cs2)CC1 (racemic) [Compound 135, 1-[4-[4-[(5R)-5-(2,6-dichlorophenyl)-4,5-dihydro-3-isoxazolyl]-2-thiazolyl]-1-piperidinyl]-2-[5-methyl-3-(trifluoromethyl)-1H-pyrazol-1-yl]ethanone]
pest or weed control at 40 ppm ([1]; * tested at 40 ppm): 100%
pest or weed control at 40 ppm [2]: 100%
pest or weed control at 40 ppm [3]: 99%

COc1cc(OC)c([C@H]2CC(c3csc(C4CCN(C(=O)Cn5nc(C(F)(F)F)cc5C)CC4)n3)=NO2)c(OC)c1 (racemic) [Compound 155, 1-[4-[4-[(5R)-4,5-dihydro-5-(2,4,6-trimethoxyphenyl)-3-isoxazolyl]-2-thiazolyl]-1-piperidinyl]-2-[5-methyl-3-(trifluoromethyl)-1H-pyrazol-1-yl]ethanone]
pest or weed control at 40 ppm ([1]; * tested at 40 ppm): 100%
pest or weed control at 40 ppm [2]: 100%
pest or weed control at 40 ppm [3]: 99%

Cc1cc(C)n(CC(=O)N2CCC(c3nc(C4=NO[C@]5(CCCc6ccccc65)C4)cs3)CC2)n1 (racemic) [Compound 164, 1-[4-[4-[(1′R)-3′,4′-dihydrospiro[isoxazole-5(4H),1′(2′H)-naphthalen]-3-yl]-2-thiazolyl]-1-piperidinyl]-2-(3,5-dimethyl-1H-pyrazol-1-yl)ethanone]
pest or weed control at 10 µg/mL ([1]; ** tested at l0 ppm): 99%
pest or weed control at 10 µg/mL [2]: 100%
pest or weed control at 10 µg/mL [3]: 99%

O=C(Cn1nc(C(F)(F)F)cc1C(F)(F)F)N1CCC(c2nc(C3=NO[C@]4(CCCc5ccccc54)C3)cs2)CC1 (racemic) [Compound 229, 2-[3,5-bis(trifluoromethyl)-1H-pyrazol-1-yl]-1-[4-[4-[(1′R)-3′,4′-dihydrospiro[isoxazole-5(4H), 1′(2′H)-naphthalen]-3-yl]-2-thiazolyl]-1-piperidinyl]ethanone]
pest or weed control at 10 µg/mL ([1]; ** tested at l0 ppm): 100%
pest or weed control at 10 µg/mL [2]: 100%
pest or weed control at 10 µg/mL [3]: 100%

O=C(Cn1nc(C(F)(F)F)cc1Cl)N1CCC(c2nc(C3=NO[C@]4(CCCc5ccccc54)C3)cs2)CC1 (racemic) [Compound 230, 2-[5-chloro-3-(trifluoromethyl)-1H-pyrazol-1-yl]-1-[4-[4-[(1′R)-3′,4′-dihydrospiro[isoxazole-5(4H), 1′(2′H)-naphthalen]-3-yl]-2-thiazolyl]-1-piperidinyl]ethanone]
pest or weed control at 10 µg/mL ([1]; ** tested at l0 ppm): 100%
pest or weed control at 10 µg/mL [2]: 100%
pest or weed control at 10 µg/mL [3]: 100%

O=C(Cn1nc(C(F)(F)F)cc1C(F)(F)F)N1CCC(c2nc(C3=NO[C@]4(CCc5ccccc54)C3)cs2)CC1 (racemic) [Compound 231, 2-[3,5-bis(trifluoromethyl)-1H-pyrazol-1-yl]-1-[4-[4-[(1R)-2,3-dihydrospiro[1H-indene-1,5′(4′1H)-isoxazol]-3′-yl]-2-thiazolyl]-1-piperidinyl]ethanone]
Percent Disease Control, Test A ([1]; ** tested at l0 ppm): 100%
Percent Disease Control, Test B ([2]; ** tested at l0 ppm): 100%
Percent Disease Control, Test C ([3]; ** tested at l0 ppm): 100%

C[C@]1(c2ccccc2)CC(c2csc(C3CCN(C(=O)Cn4nc(C(F)(F)F)cc4Cl)CC3)n2)=NO1 (racemic) [Compound 261, 2-[5-chloro-3-(trifluoromethyl)-1H-pyrazol-1-yl]-1-[4-[4-[(5R)-4,5-dihydro-5-methyl-5-phenyl-3-isoxazolyl]-2-thiazolyl]-1-piperidinyl]ethanone]
pest or weed control at 10 µg/mL ([1]; ** tested at l0 ppm): 100%
pest or weed control at 10 µg/mL [2]: 100%
pest or weed control at 10 µg/mL [3]: 93%

Cc1cc(C(F)(F)F)nn1CC(=O)N1CCC(c2nc(C3=NO[C@@](C#N)(c4ccccc4)C3)cs2)CC1 (racemic) [Compound 265, (5R)-4,5-dihydro-3-[2-[1-[2-[5-methyl-3-(trifluoromethyl)-1H-pyrazol-1-yl]acetyl]-4-piperidinyl]-4-thiazolyl]-5-phenyl-5-isoxazolecarbonitrile]
pest or weed control at 10 µg/mL ([1]; ** tested at l0 ppm): 100%
pest or weed control at 10 µg/mL [2]: 100%
pest or weed control at 10 µg/mL [3]: 98%

Cc1cc(C(F)(F)F)nn1CC(=O)N1CCC(c2nc(C3=NOC(c4ccccc4)C3)cs2)CC1 (single isomer, unassigned) [Compound 4]
Percent Disease Control, Test A ([1]; ** tested at l0 ppm): 100%
Percent Disease Control, Test B ([2]; ** tested at l0 ppm): 100%
Percent Disease Control, Test C ([3]; ** tested at l0 ppm): 99%

Cc1cc(C(F)(F)F)nn1CC(=O)N1CCC(c2nc(C3=NOC4(CCC(c5ccccc5)C4)C3)cs2)CC1 (single isomer, unassigned) [Compound 157]
Percent Disease Control, Test A ([1]; * tested at 40 ppm): 100%
Percent Disease Control, Test B ([2]; * tested at 40 ppm): 100%
Percent Disease Control, Test C ([3]; * tested at 40 ppm): 94%

Cc1cccc(-c2csc(C3CCN(C(=O)Cn4nc(C(F)(F)F)cc4C)CC3)n2)c1 [Compound 149]
Percent Disease Control, Test A [1, 4]: 99%
Percent Disease Control, Test B [2, 4]: 97%

COc1ccc(-c2csc(C3CCN(C(=O)Cn4nc(C(F)(F)F)cc4C)CC3)n2)cc1 [Compound 150]
Percent Disease Control, Test A [1, 4]: 99%
Percent Disease Control, Test B [2, 4]: 100%

Cc1ccc(-c2csc(C3CCN(C(=O)Cn4nc(C(F)(F)F)cc4C)CC3)n2)cc1 [Compound 151]
Percent Disease Control, Test A [1, 4]: 100%
Percent Disease Control, Test B [2, 4]: 99%

COc1cccc(-c2csc(C3CCN(C(=O)Cn4nc(C(F)(F)F)cc4C)CC3)n2)c1 [Compound 152]
Percent Disease Control, Test A [1, 4]: 91%
Percent Disease Control, Test B [2, 4]: 89%

COc1ccccc1-c1csc(C2CCN(C(=O)Cn3nc(C(F)(F)F)cc3C)CC2)n1 [Compound 153]
Percent Disease Control, Test A [1, 4]: 73%
Percent Disease Control, Test B [2, 4]: 0%
